Measurements published in patent US20230127944A1, “BROAD-SPECTRUM CARBAPENEMS” (priority 2019, published 2023).
≈ marks a conversion by molar mass, not a printed value. Like-named read-outs stand apart in the source and are kept apart here.

Columns and labels:
Assay type in all cases: cell-based
[1] = tested on: S. aureus ATCC 33591 (methicillin-resistant); assay: broth microdilution MIC assay, S. aureus 33591; details: Staphylococcus aureus
In short: (§1)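 CLSI broth microdilution in cation-adjusted Mueller-Hinton broth: colonies from Mueller Hinton II agar grown 3-5 h at 37° C, inoculum set by OD600 to 5×10^5 CFU/mL final. Compounds in 2-fold serial dilutions; plates incubated 16-20 hours at 37° C. MIC read visually as lowest concentration without growth.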

[2] = tested on: S. aureus USA 300; assay: broth microdilution MIC assay, S. aureus USA300; details: Staphylococcus aureus
In short: as §1

[3] = tested on: S. aureus USA 600; assay: broth microdilution MIC assay, S. aureus USA600; details: Staphylococcus aureus
In short: as §1

[4] = tested on: E. coli ATCC 25922 (wild-type/QC strain); assay: broth microdilution MIC assay, E. coli 25922
In short: as §1

[5] = tested on: P. aeruginosa ATCC 27853 (wild-type/QC strain); assay: broth microdilution MIC assay, P. aeruginosa 27853
In short: as §1

[6] = tested on: P. aeruginosa 35151 (hyper-permeable strain); assay: broth microdilution MIC assay, P. aeruginosa 35151; details: Pseudomonas aeruginosa, read-out: MIC, P. aeruginosa 35151
In short: as §1

[7] = tested on: P. aeruginosa ΔmexAB-OprM (an efflux pump knockout); assay: broth microdilution MIC assay, P. aeruginosa ΔmexAB-OprM; details: Pseudomonas aeruginosa, read-out: MIC, P. aeruginosa ΔmexAB-OprM
In short: as §1

[8] = tested on: P. aeruginosa Paeβ-17; assay: broth microdilution MIC assay, P. aeruginosa Paeβ-17; details: Pseudomonas aeruginosa, read-out: MIC, P. aeruginosa Paeβ-17
In short: as §1

[9] = ATCC33591, S. aureus 33591, methicillin-resistant, read-out: MIC, S. aureus 33591
[10] = S. aureus USA300 (MRSA), read-out: MIC, S. aureus USA300
[11] = S. aureus USA600 (MRSA), read-out: MIC, S. aureus USA600
[12] = Escherichia coli, ATCC25922; read-out: MIC, E. coli 25922
[13] = Pseudomonas aeruginosa, ATCC27853; read-out: MIC, P. aeruginosa 27853

SMILES | MIC [1, 9] [µg/mL] | MIC [2, 10] [µg/mL] | MIC [3, 11] [µg/mL] | MIC [4, 12] [µg/mL] | MIC [5, 13] [µg/mL] | MIC [6] [µg/mL] | MIC [7] [µg/mL] | MIC [8] [µg/mL] | MIC ([1]; ATCC33591, read-out: MIC, S. aureus 33591) [µg/mL] | MIC ([2]; MRSA / USA300, read-out: MIC, S. aureus USA300) [µg/mL] | MIC ([3]; MRSA / USA600, read-out: MIC, S. aureus USA600) [µg/mL] | MIC ([4]; Escherichia coli, ATCC25922, read-out: MIC, E. coli 25922) [µg/mL] | MIC ([5]; Pseudomonas aeruginosa, ATCC27853, read-out: MIC, P. aeruginosa 27853) [µg/mL]
CNC[C@H]1CC[C@H](CN2CC(SC3=C(C(=O)O)N4C(=O)[C@H]([C@@H](C)O)[C@H]4[C@H]3C)C2)CC1 [Example 47, (4R,5S,6S)-6-((R)-1-hydroxyethyl)-4-methyl-3-((1-(((1r,4R)-4-((methylamino)methyl)cyclohexyl)methyl)azetidin-3-yl)thio)-7-oxo-1-azabicyclo[3.2.0]hept-2-ene-2-carboxylic acid] | 1 to 4 (≈ 2.29 to 9.14 µM) | 1 to 4 (≈ 2.29 to 9.14 µM) | 1 to 4 (≈ 2.29 to 9.14 µM) | < 1 | 1 to 4 (≈ 2.29 to 9.14 µM) | < 1 | 1 to 4 (≈ 2.29 to 9.14 µM) | 8 to 32 (≈ 18.3 to 73.1 µM) | – | – | – | – | –
C[C@@H](O)[C@H]1C(=O)N2C(C(=O)O)=C(S[C@H]3C[C@H](NC4CCN(C(=N)N)CC4)C3)[C@H](C)[C@H]12 [Example 48, (4R,5S,6S)-3-(((1R,3R)-3-((1-carbamimidoylpiperidin-4-yl)amino)cyclobutyl)thio)-6-((R)-1-hydroxyethyl)-4-methyl-7-oxo-1-azabicyclo[3.2.0]hept-2-ene-2-carboxylic acid] | 8 to 32 (≈ 18.3 to 73.1 µM) | 1 to 4 (≈ 2.29 to 9.14 µM) | 1 to 4 (≈ 2.29 to 9.14 µM) | < 1 | 8 to 32 (≈ 18.3 to 73.1 µM) | < 1 | 1 to 4 (≈ 2.29 to 9.14 µM) | 8 to 32 (≈ 18.3 to 73.1 µM) | – | – | – | – | –
C[C@@H](O)[C@H]1C(=O)N2C(C(=O)O)=C(S[C@@H]3CC[C@H](NC4CCN(C(=N)N)CC4)C3)[C@H](C)[C@H]12 [Example 49, (4R,5S,6S)-3-(((1R,3S)-3-((1-carbamimidoylpiperidin-4-yl)amino)cyclopentyl)thio)-6-((R)-1-hydroxyethyl)-4-methyl-7-oxo-1-azabicyclo[3.2.0]hept-2-ene-2-carboxylic acid] | 1 to 4 (≈ 2.21 to 8.86 µM) | 1 to 4 (≈ 2.21 to 8.86 µM) | 1 to 4 (≈ 2.21 to 8.86 µM) | < 1 | 1 to 4 (≈ 2.21 to 8.86 µM) | < 1 | 1 to 4 (≈ 2.21 to 8.86 µM) | 8 to 32 (≈ 17.7 to 70.9 µM) | – | – | – | – | –
C[C@@H](O)[C@H]1C(=O)N2C(C(=O)O)=C(S[C@@H]3CC[C@H](NC4CCNCC4)C3)[C@H](C)[C@H]12 [Example 50, (4R,5S,6S)-6-((R)-1-hydroxyethyl)-4-methyl-7-oxo-3-(((1R,3S)-3-(piperidin-4-ylamino)cyclopentyl)thio)-1-azabicyclo[3.2.0]hept-2-ene-2-carboxylic acid] | 1 to 4 (≈ 2.44 to 9.77 µM) | 1 to 4 (≈ 2.44 to 9.77 µM) | 1 to 4 (≈ 2.44 to 9.77 µM) | < 1 | 8 to 32 (≈ 19.5 to 78.1 µM) | < 1 | 1 to 4 (≈ 2.44 to 9.77 µM) | 8 to 32 (≈ 19.5 to 78.1 µM) | – | – | – | – | –
C[C@@H](O)[C@H]1C(=O)N2C(C(=O)O)=C(S[C@H]3C[C@@H](N[C@H]4CC[C@@H](NC(=N)N)CC4)C3)[C@H](C)[C@H]12 [Example 51, (4R,5S,6S)-3-(((1S,3S)-3-(((1S,4R)-4-guanidinocyclohexyl)amino)cyclobutyl)thio)-6-((R)-1-hydroxyethyl)-4-methyl-7-oxo-1-azabicyclo[3.2.0]hept-2-ene-2-carboxylic acid] | 1 to 4 (≈ 2.21 to 8.86 µM) | < 1 | 1 to 4 (≈ 2.21 to 8.86 µM) | < 1 | 1 to 4 (≈ 2.21 to 8.86 µM) | < 1 | 1 to 4 (≈ 2.21 to 8.86 µM) | 8 to 32 (≈ 17.7 to 70.9 µM) | – | – | – | – | –
C[C@@H](O)[C@H]1C(=O)N2C(C(=O)O)=C(S[C@H]3C[C@@H](N[C@H]4CC[C@H](NC(=N)N)CC4)C3)[C@H](C)[C@H]12 [Example 52, (4R,5S,6S)-3-(((1S,3S)-3-(((1R,4S)-4-guanidinocyclohexyl)amino)cyclobutyl)thio)-6-((R)-1-hydroxyethyl)-4-methyl-7-oxo-1-azabicyclo[3.2.0]hept-2-ene-2-carboxylic acid] | 1 to 4 (≈ 2.21 to 8.86 µM) | 1 to 4 (≈ 2.21 to 8.86 µM) | < 1 | < 1 | 1 to 4 (≈ 2.21 to 8.86 µM) | < 1 | 1 to 4 (≈ 2.21 to 8.86 µM) | 8 to 32 (≈ 17.7 to 70.9 µM) | – | – | – | – | –
C[C@@H](O)[C@H]1C(=O)N2C(C(=O)O)=C(S[C@@H]3CC[C@@H](NC4CCNCC4)C3)[C@H](C)[C@H]12 [Example 53, (4R,5S,6S)-6-((R)-1-hydroxyethyl)-4-methyl-7-oxo-3-(((1R,3R)-3-(piperidin-4-ylamino)cyclopentyl)thio)-1-azabicyclo[3.2.0]hept-2-ene-2-carboxylic acid] | 8 to 32 (≈ 19.5 to 78.1 µM) | 1 to 4 (≈ 2.44 to 9.77 µM) | 1 to 4 (≈ 2.44 to 9.77 µM) | < 1 | 8 to 32 (≈ 19.5 to 78.1 µM) | < 1 | 1 to 4 (≈ 2.44 to 9.77 µM) | 8 to 32 (≈ 19.5 to 78.1 µM) | – | – | – | – | –
C[C@@H](O)[C@H]1C(=O)N2C(C(=O)O)=C(S[C@H]3C[C@@H](N4CCC(N)CC4)C3)[C@H](C)[C@H]12 [Example 54] | – | – | – | – | – | < 1 | 1 to 4 (≈ 2.53 to 10.1 µM) | 8 to 32 (≈ 20.2 to 80.9 µM) | 8 to 32 (≈ 20.2 to 80.9 µM) | 8 to 32 (≈ 20.2 to 80.9 µM) | 1 to 4 (≈ 2.53 to 10.1 µM) | < 1 | 8 to 32 (≈ 20.2 to 80.9 µM)
C[C@@H](O)[C@H]1C(=O)N2C(C(=O)O)=C(S[C@@H]3CC[C@@H](NC4CCN(C(=N)N)CC4)C3)[C@H](C)[C@H]12 [Example 55, (4R,5S,6S)-3-(((1R,3R)-3-((1-carbamimidoylpiperidin-4-yl)amino)cyclopentyl)thio)-6-((R)-1-hydroxyethyl)-4-methyl-7-oxo-1-azabicyclo[3.2.0]hept-2-ene-2-carboxylic acid] | 1 to 4 (≈ 2.21 to 8.86 µM) | 1 to 4 (≈ 2.21 to 8.86 µM) | 1 to 4 (≈ 2.21 to 8.86 µM) | < 1 | 8 to 32 (≈ 17.7 to 70.9 µM) | < 1 | 1 to 4 (≈ 2.21 to 8.86 µM) | 8 to 32 (≈ 17.7 to 70.9 µM) | – | – | – | – | –
C[C@@H](O)[C@H]1C(=O)N2C(C(=O)O)=C(S[C@@H]3CCN(C[C@H]4CC[C@H](N)CC4)C3)[C@H](C)[C@H]12 [Example 56, (4R,5S,6S)-3-(((R)-1-(((1R,4R)-4-aminocyclohexyl)methyl)pyrrolidin-3-yl)thio)-6-((R)-1-hydroxyethyl)-4-methyl-7-oxo-1-azabicyclo[3.2.0]hept-2-ene-2-carboxylic acid] | 1 to 4 (≈ 2.36 to 9.44 µM) | 1 to 4 (≈ 2.36 to 9.44 µM) | 1 to 4 (≈ 2.36 to 9.44 µM) | < 1 | 1 to 4 (≈ 2.36 to 9.44 µM) | < 1 | 1 to 4 (≈ 2.36 to 9.44 µM) | 8 to 32 (≈ 18.9 to 75.5 µM) | – | – | – | – | –
C[C@@H](O)[C@H]1C(=O)N2C(C(=O)O)=C(S[C@@H]3CCN([C@H]4CC[C@@H](CN)CC4)C3)[C@H](C)[C@H]12 [Example 57, (4R,5S,6S)-3-(((R)-1-((1S,4S)-4-(aminomethyl)cyclohexyl)pyrrolidin-3-yl)thio)-6-((R)-1-hydroxyethyl)-4-methyl-7-oxo-1-azabicyclo[3.2.0]hept-2-ene-2-carboxylic acid] | 1 to 4 (≈ 2.36 to 9.44 µM) | 1 to 4 (≈ 2.36 to 9.44 µM) | 1 to 4 (≈ 2.36 to 9.44 µM) | < 1 | 1 to 4 (≈ 2.36 to 9.44 µM) | < 1 | 1 to 4 (≈ 2.36 to 9.44 µM) | 8 to 32 (≈ 18.9 to 75.5 µM) | – | – | – | – | –
C[C@@H](O)[C@H]1C(=O)N2C(C(=O)O)=C(S[C@@H]3CCN([C@H]4CC[C@H](CN)CC4)C3)[C@H](C)[C@H]12 [Example 58, (4R,5S,6S)-3-(((R)-1-((1R,4R)-4-(aminomethyl)cyclohexyl)pyrrolidin-3-yl)thio)-6-((R)-1-hydroxyethyl)-4-methyl-7-oxo-1-azabicyclo[3.2.0]hept-2-ene-2-carboxylic acid] | 1 to 4 (≈ 2.36 to 9.44 µM) | 1 to 4 (≈ 2.36 to 9.44 µM) | 1 to 4 (≈ 2.36 to 9.44 µM) | < 1 | 1 to 4 (≈ 2.36 to 9.44 µM) | < 1 | 1 to 4 (≈ 2.36 to 9.44 µM) | 8 to 32 (≈ 18.9 to 75.5 µM) | – | – | – | – | –
